How the values were obtained:
[1] = biological target: T1, soluble guanylate cyclase (sGC) expressed by CHO-K1-Rat sGC monoclonal cell line (Rattus norvegicus, UniProt P19686+P20595); experiment: Effect on recombinant guanylate cyclase reporter cell line (CHO-K1-Rat sGC, Cisbio cGMP HTRF); format: cell-based; conditions: activating soluble guanylate cyclase
T1 construct: expressed in transfected cells; host or cells: CHO-K1
T1 sequence (P19686 1-690): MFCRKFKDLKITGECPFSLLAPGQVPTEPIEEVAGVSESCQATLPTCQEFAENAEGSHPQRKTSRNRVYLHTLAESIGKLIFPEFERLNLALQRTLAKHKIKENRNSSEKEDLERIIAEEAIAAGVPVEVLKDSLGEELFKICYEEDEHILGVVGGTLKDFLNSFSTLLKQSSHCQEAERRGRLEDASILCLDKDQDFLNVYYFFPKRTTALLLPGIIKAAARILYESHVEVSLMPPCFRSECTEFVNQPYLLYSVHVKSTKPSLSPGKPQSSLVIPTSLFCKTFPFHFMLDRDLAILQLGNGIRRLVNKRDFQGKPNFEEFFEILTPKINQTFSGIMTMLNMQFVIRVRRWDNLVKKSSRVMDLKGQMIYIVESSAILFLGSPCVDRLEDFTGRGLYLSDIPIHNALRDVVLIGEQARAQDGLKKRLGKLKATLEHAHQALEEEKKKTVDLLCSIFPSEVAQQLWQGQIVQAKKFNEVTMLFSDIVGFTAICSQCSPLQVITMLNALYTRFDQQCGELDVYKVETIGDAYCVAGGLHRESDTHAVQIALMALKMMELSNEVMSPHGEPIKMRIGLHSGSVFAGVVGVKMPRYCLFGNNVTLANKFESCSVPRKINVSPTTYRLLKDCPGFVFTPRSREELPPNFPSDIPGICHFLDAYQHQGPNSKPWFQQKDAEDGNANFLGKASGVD
T1 sequence (P20595 1-619): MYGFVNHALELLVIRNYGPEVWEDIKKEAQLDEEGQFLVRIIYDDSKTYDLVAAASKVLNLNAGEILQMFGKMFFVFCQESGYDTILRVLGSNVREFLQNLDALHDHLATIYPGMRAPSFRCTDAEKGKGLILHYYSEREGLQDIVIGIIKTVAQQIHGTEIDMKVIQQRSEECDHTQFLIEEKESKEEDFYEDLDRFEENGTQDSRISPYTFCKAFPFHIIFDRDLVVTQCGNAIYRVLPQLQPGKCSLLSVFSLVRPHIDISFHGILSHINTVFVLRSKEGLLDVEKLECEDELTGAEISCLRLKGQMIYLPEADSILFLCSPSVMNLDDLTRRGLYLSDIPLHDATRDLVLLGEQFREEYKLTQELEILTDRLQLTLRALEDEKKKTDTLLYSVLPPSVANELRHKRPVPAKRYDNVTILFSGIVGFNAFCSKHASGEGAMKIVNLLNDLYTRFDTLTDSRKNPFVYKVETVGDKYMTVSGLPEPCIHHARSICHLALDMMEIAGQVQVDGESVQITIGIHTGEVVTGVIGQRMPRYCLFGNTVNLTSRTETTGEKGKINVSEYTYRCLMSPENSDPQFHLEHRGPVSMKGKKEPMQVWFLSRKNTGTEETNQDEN
Source text: Transfection of Soluble Guanylate Cyclase (sGC) gene into CHO-K1 cells and selection of cells with stably and highly expressed sGC: Rat sGCα1 and Rat sGCβ1 Genes were synthesized, and then pcDNA3.1(+)-rat sGCα1 and pcDNA3.1/Hygro (+)-rat sGCβ1 plasmid were constructed; the plasmid was co-transfected into CHO-K1 cells, and a positive clone cell line stably expressing CHO-K1-Rat sGC was selected using the Cisbio cGMP HTRF assay kit.
The activity of the compound on the CHO-K1-Rat sGC monoclonal cell line was determined: The CHO-K1-Rat sGC monoclonal cell line was cultured, and used for test operation at degree of fusion of about 70% to 90%. The cells were resuspended in complete medium after TrypLE digestion; the cells were inoculated in a 384-well (low volume tissues culture treated) cell culture plate at a seeding density of 7500/well in 25 μL of complete medium and incubated at 37° C. in 5% CO2 atmosphere for 20 hours; the test compounds were dissolved and dilute with DMSO to give 10 concentration gradients (2× working concentration); 384-well cell culture plates were centrifugated (200 g) for 3 seconds by inversion at RT, medium was removed; The test compounds in each different concentration gradient and corresponding reagent were added into each cell well according to the detection process of Cisbio cGMP HTRF assay kit. The data were collected with Envision HTRF detector and the EC50 value of each compound in activating soluble guanylate cyclase was calculated.

[2] = Pharmacokinetics in male SD rats after intravenous and oral administration; format: in vivo
Protocol: Preparation of test compound solution: The test compound was formulated with 5% dimethylsulfoxide, 5% Solutol HS 15 and 90% physiological saline to give solution, which was used for oral and intravenous administration.
Male SD rats weighing 190-250 g were randomly divided into two groups, each group had three members; one group received test compound at a dose of 1.0 mg/kg by intravenous injection, the other group received test compound at a dose of 2.5 or 5.0 mg/kg by oral. After dosing, blood samples were collected at time points of 0.0833, 0.25, 0.5, 1.0, 2.0, 4.0, 7.0 and 24 h. Standard curve was plotted based on concentrations of the samples in a suitable range, the concentrations of test compounds in plasma samples were determined by using AB SCIEX API4000 LC-MS/MS in MRM mode. Pharmacokinetic parameters were calculated according to drug concentration-time curve using a noncompartmental method by WinNonLin 6.3 software.

Structure (SMILES): COC(=O)Nc1c(N)nc(-c2nn(Cc3ccccc3F)c3c(F)cccc23)nc1N [Example 10, methyl (4,6-diamino-2-(7-fluoro-1-(2-fluorobenzyl)-1H-indazol-3-yl)pyrimidin-5-yl)carbamate]
- EC50 [1]: 370 nM
- F ([2]; po 5 mg/kg versus iv 1 mg/kg): 99.6%
- AUC(0-t) ([2]; rat, plasma, iv, 1 mg/kg): 7520 ng·h/mL
- Cmax ([2]; rat, plasma, iv, 1 mg/kg): 1500 ng/mL
- Tmax ([2]; rat, plasma, iv, 1 mg/kg): 0.083 h
- clearance ([2]; rat, plasma, iv, 1 mg/kg): 2.21 mL/min/kg
- half-life ([2]; rat, plasma, iv, 1 mg/kg): 212 min
- Vd ([2]; rat, plasma, iv, 1 mg/kg, read-out: Vss): 0.63 L/kg
- AUC(0-t) ([2]; rat, plasma, po, 5 mg/kg): 37500 ng·h/mL
- Cmax ([2]; rat, plasma, po, 5 mg/kg): 3070 ng/mL
- Tmax ([2]; rat, plasma, po, 5 mg/kg): 2 h
- half-life ([2]; rat, plasma, po, 5 mg/kg): 260 min

— US11242335B2, “Fluorine-substituted indazole compounds and uses thereof” (SUNSHINE LAKE PHARMA CO., LTD., priority 2017, dated 2022)
